Test system: yeast genes (expressed mRNA)
Assay: DNA chip measurement of expressed mRNA of yeast genes after culture with a toxic chemical substance
Format: cell-based, Saccharomyces cerevisiae S288C
Details: for level of expressed mRNA in the presence of chemical substance / level in the absence of chemical substance: cultured two hours with the chemical substance; for The level of expressed mRNA in the presence of chemical substance/The level of expressed mRNA in the absence of chemical substance: cultured two hours with substance
Outline: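 Fluorescence ratio, treated over untreated, read by chip scanner; ratio of two or more counted significant. Cells: S288C yeast, YPD, 25° C, chemical added at log phase for 2 h at growth-inhibiting, sublethal level. Cy3/Cy5-labeled cDNA from oligo-dT-purified mRNA.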

Manganese ethylenebis(dithiocarbamate) [(8)]
0.6: level of expressed mRNA in the presence of chemical substance / level in the absence of chemical substance (yeast gene YCL042W)
1.2: The level of expressed mRNA in the presence of chemical substance/The level of expressed mRNA in the absence of chemical substance, yeast gene YLR295C (gene YLR295C (mitochondria-located protein gene), yeast cultured two hours with chemical substance, DNA chip fluorescence ratio to control) | The level of expressed mRNA in the presence of chemical substance/The level of expressed mRNA in the absence of chemical substance, yeast gene YLR351C (gene YLR351C, Metabolism protein genes, DNA chip fluorescence ratio) | The level of expressed mRNA in the presence of chemical substance/The level of expressed mRNA in the absence of chemical substance (yeast gene YBL048W) | level of expressed mRNA in the presence of chemical substance / level in the absence of chemical substance (yeast gene YBR066C) | level of expressed mRNA in the presence of chemical substance / level in the absence of chemical substance (yeast gene YBR124W)
0.9: The level of expressed mRNA in the presence of chemical substance/The level of expressed mRNA in the absence of chemical substance, yeast gene YKR009C (gene YKR009C, Metabolism protein genes, DNA chip fluorescence ratio) | The level of expressed mRNA in the presence of chemical substance/The level of expressed mRNA in the absence of chemical substance, yeast gene YNR072W (gene YNR072W, Metabolism protein genes, DNA chip fluorescence ratio) | The level of expressed mRNA in the presence of chemical substance/The level of expressed mRNA in the absence of chemical substance, yeast gene YOR180C (gene YOR180C, Metabolism protein genes, DNA chip fluorescence ratio)
1.6: level of expressed mRNA in the presence of chemical substance / level in the absence of chemical substance (yeast gene YAL018C)
1.9: The level of expressed mRNA in the presence of chemical substance/The level of expressed mRNA in the absence of chemical substance (yeast gene YBL107C)
0.5: The level of expressed mRNA in the presence of chemical substance/The level of expressed mRNA in the absence of chemical substance, yeast gene YBR298C (gene YBR298C, Metabolism protein genes, DNA chip fluorescence ratio)
1.5: The level of expressed mRNA in the presence of chemical substance/The level of expressed mRNA in the absence of chemical substance, yeast gene YDR297W (gene YDR297W, Metabolism protein genes, DNA chip fluorescence ratio) | The level of expressed mRNA in the presence of chemical substance/The level of expressed mRNA in the absence of chemical substance, yeast gene YMR267W (gene YMR267W (mitochondria-located protein gene), yeast cultured two hours with chemical substance, DNA chip fluorescence ratio to control) | The level of expressed mRNA in the presence of chemical substance/The level of expressed mRNA in the absence of chemical substance, yeast gene YMR267W (gene YMR267W, Metabolism protein genes, DNA chip fluorescence ratio)
1.0: The level of expressed mRNA in the presence of chemical substance/The level of expressed mRNA in the absence of chemical substance, yeast gene YDL078C (gene YDL078C, Metabolism protein genes, DNA chip fluorescence ratio) | The level of expressed mRNA in the presence of chemical substance/The level of expressed mRNA in the absence of chemical substance, yeast gene YJL180C (gene YJL180C (mitochondria-located protein gene), yeast cultured two hours with chemical substance, DNA chip fluorescence ratio to control) | The level of expressed mRNA in the presence of chemical substance/The level of expressed mRNA in the absence of chemical substance, yeast gene YLR375W (gene YLR375W, Metabolism protein genes, DNA chip fluorescence ratio) | The level of expressed mRNA in the presence of chemical substance/The level of expressed mRNA in the absence of chemical substance, yeast gene YMR293C (gene YMR293C, Metabolism protein genes, DNA chip fluorescence ratio) | The level of expressed mRNA in the presence of chemical substance/The level of expressed mRNA in the absence of chemical substance, yeast gene YNL073W (gene YNL073W (mitochondria-located protein gene), yeast cultured two hours with chemical substance, DNA chip fluorescence ratio to control) | The level of expressed mRNA in the presence of chemical substance/The level of expressed mRNA in the absence of chemical substance, yeast gene YOL096C (gene YOL096C, Metabolism protein genes, DNA chip fluorescence ratio) | level of expressed mRNA in the presence of chemical substance / level in the absence of chemical substance (yeast gene YBR287W) | level of expressed mRNA in the presence of chemical substance / level in the absence of chemical substance (yeast gene YCL056C) | level of expressed mRNA in the presence of chemical substance / level in the absence of chemical substance (yeast gene YCR007C)
2.6: The level of expressed mRNA in the presence of chemical substance/The level of expressed mRNA in the absence of chemical substance, yeast gene YDR079W (gene YDR079W (mitochondria-located protein gene), yeast cultured two hours with chemical substance, DNA chip fluorescence ratio to control)
0.7: The level of expressed mRNA in the presence of chemical substance/The level of expressed mRNA in the absence of chemical substance, yeast gene YBR036C (gene YBR036C, Metabolism protein genes, DNA chip fluorescence ratio) | The level of expressed mRNA in the presence of chemical substance/The level of expressed mRNA in the absence of chemical substance, yeast gene YDR387C (gene YDR387C, Metabolism protein genes, DNA chip fluorescence ratio) | The level of expressed mRNA in the presence of chemical substance/The level of expressed mRNA in the absence of chemical substance, yeast gene YPR184W (gene YPR184W, Metabolism protein genes, DNA chip fluorescence ratio) | level of expressed mRNA in the presence of chemical substance / level in the absence of chemical substance (yeast gene YBL044W) | level of expressed mRNA in the presence of chemical substance / level in the absence of chemical substance (yeast gene YDL046W) | The level of expressed mRNA in the presence of chemical substance/The level of expressed mRNA in the absence of chemical substance (yeast gene YDL222C)
1.1: The level of expressed mRNA in the presence of chemical substance/The level of expressed mRNA in the absence of chemical substance, yeast gene YDL067C (gene YDL067C (mitochondria-located protein gene), yeast cultured two hours with chemical substance, DNA chip fluorescence ratio to control) | The level of expressed mRNA in the presence of chemical substance/The level of expressed mRNA in the absence of chemical substance, yeast gene YDL215C (gene YDL215C, Metabolism protein genes, DNA chip fluorescence ratio) | The level of expressed mRNA in the presence of chemical substance/The level of expressed mRNA in the absence of chemical substance, yeast gene YJL070C (gene YJL070C, Metabolism protein genes, DNA chip fluorescence ratio) | The level of expressed mRNA in the presence of chemical substance/The level of expressed mRNA in the absence of chemical substance, yeast gene YMR278W (gene YMR278W, Metabolism protein genes, DNA chip fluorescence ratio) | The level of expressed mRNA in the presence of chemical substance/The level of expressed mRNA in the absence of chemical substance, yeast gene YOR363C (gene YOR363C, Metabolism protein genes, DNA chip fluorescence ratio) | The level of expressed mRNA in the presence of chemical substance/The level of expressed mRNA in the absence of chemical substance, yeast gene YPL040C (gene YPL040C (mitochondria-located protein gene), yeast cultured two hours with chemical substance, DNA chip fluorescence ratio to control) | level of expressed mRNA in the presence of chemical substance / level in the absence of chemical substance (yeast gene YAR064W) | level of expressed mRNA in the presence of chemical substance / level in the absence of chemical substance (yeast gene YBR012C) | The level of expressed mRNA in the presence of chemical substance/The level of expressed mRNA in the absence of chemical substance (yeast gene YDL204W)
1.3: The level of expressed mRNA in the presence of chemical substance/The level of expressed mRNA in the absence of chemical substance, yeast gene YGL035C (gene YGL035C, Metabolism protein genes, DNA chip fluorescence ratio) | The level of expressed mRNA in the presence of chemical substance/The level of expressed mRNA in the absence of chemical substance, yeast gene YGR287C (gene YGR287C, Metabolism protein genes, DNA chip fluorescence ratio) | The level of expressed mRNA in the presence of chemical substance/The level of expressed mRNA in the absence of chemical substance, yeast gene YJL096W (gene YJL096W (mitochondria-located protein gene), yeast cultured two hours with chemical substance, DNA chip fluorescence ratio to control) | The level of expressed mRNA in the presence of chemical substance/The level of expressed mRNA in the absence of chemical substance, yeast gene YPL134C (gene YPL134C (mitochondria-located protein gene), yeast cultured two hours with chemical substance, DNA chip fluorescence ratio to control)
0.8: The level of expressed mRNA in the presence of chemical substance/The level of expressed mRNA in the absence of chemical substance, yeast gene YGR062C (gene YGR062C (mitochondria-located protein gene), yeast cultured two hours with chemical substance, DNA chip fluorescence ratio to control) | The level of expressed mRNA in the presence of chemical substance/The level of expressed mRNA in the absence of chemical substance, yeast gene YOR316C (gene YOR316C (mitochondria-located protein gene), yeast cultured two hours with chemical substance, DNA chip fluorescence ratio to control) | The level of expressed mRNA in the presence of chemical substance/The level of expressed mRNA in the absence of chemical substance (yeast gene YAL053W) | level of expressed mRNA in the presence of chemical substance / level in the absence of chemical substance (yeast gene YAR047C) | level of expressed mRNA in the presence of chemical substance / level in the absence of chemical substance (yeast gene YBR162C) | The level of expressed mRNA in the presence of chemical substance/The level of expressed mRNA in the absence of chemical substance (yeast gene YDL072C) | level of expressed mRNA in the presence of chemical substance / level in the absence of chemical substance (yeast gene YDR090C)
1.4: The level of expressed mRNA in the presence of chemical substance/The level of expressed mRNA in the absence of chemical substance, yeast gene YMR023C (gene YMR023C (mitochondria-located protein gene), yeast cultured two hours with chemical substance, DNA chip fluorescence ratio to control)

Reference: patent publication US20100041089A1, “IMPROVED METHOD FOR DETECTING CHEMICAL […]” (priority 2006, published 2010)
